These results are taken from US10028949B2, “Parenteral formulations of lipophilic pharmaceutical agents and methods for preparing and using the same” (priority 2011, dated 2018).

Series [1] has as its system human myeloid leukemia cell lines KBM-3 and KBM-7/B5, as well as the OCI-AML3. The series is described as follows: In vitro cytotoxicity of busulfan, MTT assay. The class given is cell-based. The conditions noted are these: compared with Bu dissolved in DMSO (positive control). The protocol:
The cytotoxic potential of the selected preferred solvent systems with and without Bu was determined against the human myeloid leukemia cell lines KBM-3 and KBM-7/B5, as well as the OCI-AML3 (Andersson et al., 1993; Andersson et al., 1987; Andersson et al., 1995; Wang et al., 1991). Briefly, continuously growing cells were exposed to drug, and then pelleted, after which they were resuspended in complete cell culture medium at 2×10^5/mL and aliquoted (20,000/well) in 96-well plates, incubated at 37° C. for 4 days, and analyzed by the MTT assay (Mosmann, 1983). Graphical analyses including calculations of IC50 and charting of survival were done using Prism 4 (GraphPad Software, Inc., San Diego, Calif.). Cells exposed in parallel to solvent system and medium alone served as negative controls, and cells exposed to […] (final concentration 0.08% v/v) served as a positive control for a comparison of cytotoxic action with the DMA-Bu formulation.

Series [2] in a line: physchem. The conditions noted are these: thermodynamic from solid.
The conditions of series [3]: in vivo; cited from earlier work.
Series [4] has as its system erythrocytes. The series is described as follows: Hemolysis studies in vitro. Type of series: cell-based. The conditions noted are these: drug concentrations of 100 μg/mL or more. The source says: The hemolytic potential of the final use-formulation should also be minimal, since the terminal use formulation/infusate contain Bu and PEG as the only significant solutes to be infused, i.e. this is basically D5W with a moderate amount of PEG (40%, v/v) as its main additive. The procedure of Parthasarathy et al. was used to examine the hemolytic potential of a few selected formulations, and the LD50 values of the most optimal formulation was constructed as previously described (Parthasarathy et al., 1994). Briefly, heparinized blood was mixed with an equal volume of Alsever's solution (Alsever and Ainslie, 1941). This mixture was washed twice in PBS, and a 10% (volume per volume, v/v) erythrocyte/PBS solution was then prepared and mixed with increasing amounts of PEG (essentially the VE-acetone/PEG prototype vehicle) with or without addition of D5W and with or without Bu. The resulting mixtures were incubated for 4 hours at 37° C. […] The release of hemoglobin in the supernatant (i.e., hemolysis) was determined spectrophotometrically at a wavelength of 550 nm. Maximum lysis was measured against a reference erythrocyte solution that had been lysed by hypotonic shock. The hemolytic potential of the vehicle and the complete final use-formulation (Bu/VE-acetone/PEG/D5W) was evaluated as described (Parthasarathy et al., 1984). […]

The conditions of series [5]: cited from earlier work.
The conditions of series [6]: for Solubility / Solubility (mg/mL): room temperature; for Solubility (mg/mL): listed as Bu.
Series [7] is described as follows: Parenteral busulfan pharmacology in mice. The protocol: Swiss Webster mice with a body weight of 25-30 g were used for the in vivo pharmacology experiments (Harlan-Sprague-Dawley, Houston, Tex.). The animals were allowed a minimum of 3-4 days after arrival to acclimatize to the new environment and allowed free access to commercial feed and hyperchlorinated, reverse-osmosis purified water prior to and during the experimentation period. The animal-housing facilities meet the requirements of the USDA, NIH, and DHHS.
Busulfan at a dose of 10 mg/kg BW was used as an appropriate and representative single dose that could be administered as a slow IV bolus injection over 3-4 min.
The Bu was formulated in the prototype VE-acetone/PEG vehicle to a stock concentration of about 10 mg/mL and then diluted with D5W to 1 mg/mL and 2 mg/mL (in repeated experiments) so the total dose of 10 mg/kg could be injected in a volume of about 250 μL and 125 μL, respectively, in a tail vein. The Bu concentrations of the final use-formulation were confirmed by HPLC prior to administration.
No anticonvulsant premedication was used in the animals in these experiments to avoid the possible induction of microsomal liver enzymes that could modify Bu metabolism. For the same reason the animals were unanesthetized during the drug injection, only physically restrained.
Blood samples (0.5-1.0 mL) were procured through cardiac puncture under Isoflurane-induced general anesthesia. These samples were drawn in preheparinized tubes at selected time points prior to the drug infusion (“blank”), and from 5 min to 4 hours after drug injection for determination of Bu concentrations. The blood was centrifuged at 1,000×g for 10 min, and plasma was removed and stored at −80° C. until extracted and assayed by HPLC.

Read-outs that look alike come from different tables or passages of the source.

By solubility is commonly meant the dissolved amount per volume that the medium holds. One may read the Solubility as how much of the substance goes into solution per volume. By half-life is commonly meant how long it takes for the measured level to halve. For `CS(=O)(=O)OCCCCOS(C)(=O)=O` [Busulfan, 1,4-butanediol dimethanesulfonate], the cytotoxic activity result in series [1] is reported as “retained full cytotoxic activity”. Moreover, the solubility at 60 minutes in series [2] (aqueous buffer, Solubility (mg/mL), Solvent: HCl 6 N, room temperature) is 700 µg/mL; in series [2] (aqueous with cosolvent or surfactant or cyclodextrin, Solubility (mg/mL), Solvent: PEG:water 1:1, room temperature) it was 250 µg/mL; in series [2] (aqueous with cosolvent or surfactant or cyclodextrin, Solubility (mg/mL), Solvent: PEG:water 1:2, room temperature), 190 µg/mL; in series [2] (organic solvent or mixture), about 16000 µg/mL; in series [2] (organic solvent or mixture, Solubility (mg/mL), Solvent: Acetic acid, room temperature), 3800 µg/mL; in series [2] (organic solvent or mixture, Solubility (mg/mL), Solvent: Ethanol, room temperature), 300 µg/mL. Further, the solubility at 60 minutes worked out at 200 µg/mL in series [2] (organic solvent or mixture, Solubility (mg/mL), Solvent: PEG (−400), room temperature) and 200 µg/mL in series [2] (organic solvent or mixture, Solubility (mg/mL), Solvent: Propylene glycol, room temperature). Also, the Solubility was 16400 µg/mL in series [2] (organic solvent or mixture); about 25000 µg/mL in series [5] (Solvent: Acetone, in literature); 49200 µg/mL in series [6] (Solvent: DMA); 77900 µg/mL in series [6] (Solvent: DMSO). In addition, the “terminal half-life in blood” value in series [3] was 2 to 4 h. Besides, the Bu-dependent lysis entry in series [4] is “barely exceeded background levels”. Moreover, the figures for the “Solubility (mg/mL)” value in series [5] (Solvent: Water (The Merck Index)), in series [6] (Solvent: DMA) and in series [6] (Solvent: DMSO) were “Negligible (The Merck Index)”, “more than 15 mg/mL” and “more than 15 mg/mL”, respectively. Also, the “concentration of Bu stably bound in PEG alone” value in series [6] (after mixing with PEG and extraction of the acetone) was 5000 to 10000 µg/mL. In series [7] (Swiss Webster, mouse, plasma, iv, 10 mg/kg), the half-life lay in the range of 2.5 to 3.5 h. The tolerability of injections entry in series [7] (mice, 10 mg/kg IV, acute 4-hour observation period) is recorded as “well tolerated”. Also, the “hemolysis in vivo (urine samples)” value in series [7] (mice, 10 mg/kg, urine samples up to 4 hours) is “no sign of hemolysis”. Also, the Bu plasma concentrations entry in series [7] (mice, IV 10 mg/kg BW) was “for several hours remained in the cytotoxic range”.
